# According to patent US12102672B2, “Immunogenic sequences from a phage tail length tape measure protein, bacteria expressing the same and their use in treating a cancer” (INSTITUT GUSTAVE ROUSSY, priority 2017, dated 2024):
# Entries after “also recorded” stand apart in the source; their conditions may differ.
# Columns and labels:
# [1] = tested on: CD8+ and CD4+ T cells; assay: Flow cytometry of T cells in mLN, spleen and tumor after oral gavage with E. hirae and CTX; format: in vivo, mice; details: for accumulation of CD8+ T cells in mLN and spleen: mLN after 1 week, spleen after 2 weeks
# Description: FIG. 7. […] (A) Experimental setting. […] One day post-CTX, a second oral gavage with E. hirae is performed. 72 hours post-CTX, CD4+ and CD8+ T cells are isolated from mesenteric lymph node (mLN). Percentage of CD8+(B) and CD4+(C) T cells in mLN after oral gavage with E. hirae 708 or 13144 and CTX treatment. (D) Experimental setting. […] 5 days after the first oral gavage, mice are treated with CTX. One week post-CTX, CD8+ T cells are isolated from spleen. Percentage of CD8+ T cells (E) and CCR9+CXCR3+CD8 T cells (F) in spleen after oral gavage with E. hirae 708 or 13144 and CTX treatment.
# [2] = tested on: MCA205 sarcoma; details: cited from earlier work; for anti-tumor immune response: FIG. 1D of Daillère et al., 2016
# [3] = tested on: colon mucosae; assay: Colon inflammatory infiltrates (HES staining) after E. hirae gavage and CTX; format: in vivo, mice; details: for inflammatory infiltrates of colon mucosae: mice without tumor, oral gavages + CTX, versus without commensals
# Description: FIG. 11. Effects of EH on gut inflammation and role of CD8+ T cells in this inflammation: EH-specific CTL amplified in the mLN may return into the lamina propria. (A) Experimental setting. […] Then, we performed oral gavage with E. hirae (708 or 13144) and anti-CD8 injection (200 μg per mice) every three days for a total of 4 gavages/injections. 5 days after the first oral gavage, mice are treated with CTX. One week post-CTX, colon is removed for Hematoxylin Eosin Staining (HES). (B) Extent of inflammatory infiltrates in colon of mice colonized with E. hirae and treated with anti-CD8 ablating Abs and CTX.
# FIG. 18. […] (A) Experimental setting. […] Then we performed oral gavage with E. hirae (708 or 13144) every three days for a total of 4 gavages. 5 days after the first oral gavage, mice were treated with CTX. One week post-CTX, colons are removed to be embedded in PPFE for Hematoxylin, Eosin and Safran staining (HES). (B) Extent of inflammatory infiltrates in colons of mice bearing MCA205 tumors or not and colonized with E. hirae and treated with CTX. Student t′-test statistical analyses: ** p<0.01.
# [4] = tested on: MCA-205 sarcoma; assay: MCA-205 sarcoma growth in FMT-treated mice, CTX plus oral gavage with E. hirae strains; format: in vivo; details: for CTX-mediated antitumor effects (MCA-205 tumor growth): FMT from BC patient 2 with no overt dysbiosis, oral gavage; for boost of CTX tumoricidal activity (MCA-205 tumor growth): dysbiotic FMT from BC patient, 3 cycles CTX 100 mg/kg, oral gavage 1.10^9 bacteria; for Anti-tumor effect: summary of the characteristics of the strains, with CTX, MCA205 sarcoma
# Description: FIG. 1. Experimental setting. (A) Mice are treated with broad spectrum antibiotics (streptomycin, colistin, ampicillin and vancomycine) for 3 days before performing Fecal Microbiota Transplantation (FMT). 14 days post-FMT, MCA-205 sarcoma cell lines are inoculated in the right flank of mice (8.10^5 cells per mice). […] (B) Non FMT-treated SPF mice are used as control.
# FIG. 2. Dysbiosis by FMT BC patient 1: Effectiveness of E. hirae 13144 to restore CTX-mediated antitumor effects. […] (C) Tumor growth curves of MCA-205 sarcoma in FMT-treated mice after oral gavage with strain E. hirae 13144 or NaCl as control. 2 independent experiments are depicted. (D) Overall survival of FMT-treated, MCA-205 sarcoma bearing mice treated with CTX or NaCl after oral gavage with strain E. hirae 13144. A typical survival curve is depicted for six mice per group. (E) Concatenated data of tumor sizes at day 21 post-CTX from 2 independent experiments are shown.
# FIG. 3. […] (C) Tumor growth curves of MCA-205 sarcoma in FMT-treated mice after oral gavage with strain E. hirae 13144 or NaCl as control. 2 independent experiments are depicted. (D) Concatenated data of tumor sizes at day 21 post-CTX from 2 independent experiments are shown.
# FIG. 4. […] Tumor growth curves of MCA-205 sarcoma in FMT-treated mice after oral gavage with strain E. hirae 13144 (A), IGR1 (B) or NaCl as control. A typical curve is depicted for six mice per group. (C) Concatenated data of tumor sizes at day 17 post-CTX from 1-2 independent experiments are shown. (D). Comparaison of various strains of E. hirae for their capacity to control tumor growth. […] EH10815 fails to work and that may be related to a mutation residing in TMP2 (see below FIG. 13B).
# FIG. 5. […] (A) Tumor surface of MCA-205 sarcoma in FMT-treated mice after oral gavage with strain E. hirae 13144, IGR4, IGR7, Actinomycetes spp (Ao) and injected with 3 cycles of CTX (C) vs NaCl (N). Each dot is one mouse/tumor. (B) Tumor growth curves of MCA-205 sarcoma in SPF mice of the best group, means+SEM of tumor sizes at each time point and tumor sizes at sacrifice (C: CTX). Each dot is one mouse/tumor. Anova statistics indicating significant differences between CTX and the triple combination. (C) Tumor surface of MCA-205 sarcoma in FMT-treated mice after oral gavage with strains EH13144, IGR1, IGR11, Barnesiella or Akkermansia and injected with 3 cycles of CTX. Bacterial strains are used alive (V) or pasteurized (P). For pasteurization, bacteria are incubated 30 min at 70° C. and frozen at −80° C. at least 6 hours.
# FIG. 6. […] Tumor growth curves of MCA-205 sarcoma in FMT-treated mice after oral gavage with strain E. hirae 13144 alive (A), pasteurized (B) or NaCl as control. A typical curve is depicted for six mice per group. (C) Concatenated data of tumor sizes at day 17 post-CTX from 3 independent experiments are shown.
Substance,CD4+ T cell pool in the mLN ([1]; 72 hours post-CTX),accumulation of CD8+CCR9+CXCR3+ T cells in spleen and tumor beds ([1]; listed as EH13144),accumulation of CD8+ T cells in mLN and spleen ([1]; listed as E. hirae 13144),accumulation of CD8+ T cells in mLN and spleen ([1]; listed as EH13144),"restoration of CTX-mediated antitumor effects ([2]; 14 day-ATBs, oral gavage)",anti-tumor immune response [2],"colon inflammatory lesions in tumor bearers ([3]; mice bearing MCA205 sarcoma versus naive, listed as E. hirae 13144)",inflammatory infiltrates of colon mucosae [3],CTX-mediated antitumor effects (MCA-205 tumor growth) ([4]; listed as E. hirae 13144),CTX-mediated antitumor effects (MCA-205 tumor growth) ([4]; listed as EH13144),boost of CTX tumoricidal activity (MCA-205 tumor growth) ([4]; listed as E. hirae 13144),boost of CTX tumoricidal activity (MCA-205 tumor growth) ([4]; listed as EH13144),Anti-tumor effect [4],accumulation of CD8+ T cells in mLN and spleen [1]
Enterococcus hirae strain 13144 [Peptide 13144],amplified,induce accumulation; also recorded: Sustained accumulation,Increased accumulation,capable of inducing the accumulation of CD8+ T cells,selectively restored the CTX-mediated antitumor effects,induces an efficient anti-tumor immune response,markedly reduced; also recorded: prevents the gut inflammatory lesions,more infiltrated,ameliorates the CTX-mediated antitumor effects,significant,only when used alive,very effective at restoring the efficacy,Yes,–
"Enterococcus hirae 708 [Peptide 708, reference compound]",–,–,–,–,–,fails to do so,–,more infiltrated,–,–,–,–,No,capable of inducing the accumulation of CD8+ T cells
